# From patent US20250041303A1, “COMBINATION THERAPY FOR CANCER TREATMENT” (INSTITUTE FOR CANCER RESEARCH D/B/A THE RESEARCH INSTITUTE …, priority 2021, published 2025)
# How the values were obtained:
# [1] = test system: SW1463 or SW837 KRASG12C cells; assay: Colony formation assay (14 days) in KRASG12C CRC cells; settings: 1 μM
# KRASG12C = molecular target: T1, KRASG12C (Homo sapiens, UniProt P01116, G12C); assay: Western blot of KRASG12C and effector signaling in SW1463 cells; format: cell-based
# T1 construct: endogenous in cells; host or cells: SW1463
# Experimental: (§2) Samples were harvested in MIB lysis buffer (50 mM HEPES (pH 7.5), 0.5% Triton X-100, 150 mM NaCl, 1 mM EDTA, 1 mM EGTA, 10 mM sodium fluoride, 2.5 mM sodium orthovanadate, 1× protease inhibitor cocktail (Roche), and 1% each of phosphatase inhibitor cocktails 2 and 3 (Sigma)). Particulate was removed by centrifugation of lysates at 21,000 rpm for 15 minutes at 4° C. Lysates were subjected to SDS-PAGE chromatography and transferred to PVDF membranes before western blotting with primary antibodies. […] Secondary HRP-anti-rabbit and HRP-anti-mouse were obtained from ThermoFisher Scientific. SuperSignal West Pico and Femto Chemiluminescent Substrates (Thermo) were used to visualize blots.
# MEK1/2 [2] = assay: Western blot of MEK1/2 degrader target in DLD-1 cells; format: cell-based; settings: 1 μM, 24 hours
# [3] = test system: K-ras mutant CRC cell lines (LS1034, LS513, SW948, SW1463, SKCO1, NCIH747, SW620); assay: Cell viability (CellTiter-Glo) and colony formation of K-ras mutant CRC cell lines; settings: escalating doses 5 days (viability); 1 μM 14 days (colony formation)
# MEK1/2 [4] = assay: Western blot of MEK1/2 degradation and ERK1/2 phosphorylation in LS513 cells; format: cell-based; settings: LS513 (MDR1-overexpressing) vs SKCO1; escalating doses, 4 hours
# Experimental: as §2
# [5] = test system: A1847 and SUM159 parental and degrader-resistant cells; assay: CellTiter-Glo cell viability, parental vs degrader-resistant cells
# CDK9 [6] = molecular target: T2, CDK9 (Homo sapiens, UniProt P50750); assay: Western blot of CDK9 degradation in DLD-1 cells; format: cell-based; parameters: endogenous in cells; host or cells: DLD-1; settings: 4 hours
# T2 sequence (P50750 whole entry): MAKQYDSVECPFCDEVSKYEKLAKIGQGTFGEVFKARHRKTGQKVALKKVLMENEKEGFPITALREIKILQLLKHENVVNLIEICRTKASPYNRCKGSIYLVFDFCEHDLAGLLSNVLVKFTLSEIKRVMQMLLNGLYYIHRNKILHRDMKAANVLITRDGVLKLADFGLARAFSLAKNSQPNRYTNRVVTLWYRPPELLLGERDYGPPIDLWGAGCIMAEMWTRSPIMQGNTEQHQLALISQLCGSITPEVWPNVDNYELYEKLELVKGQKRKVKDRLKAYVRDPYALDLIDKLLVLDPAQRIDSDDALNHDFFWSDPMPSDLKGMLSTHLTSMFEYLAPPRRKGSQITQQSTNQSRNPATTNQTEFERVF
# T2 sequence (O60563 whole entry partner): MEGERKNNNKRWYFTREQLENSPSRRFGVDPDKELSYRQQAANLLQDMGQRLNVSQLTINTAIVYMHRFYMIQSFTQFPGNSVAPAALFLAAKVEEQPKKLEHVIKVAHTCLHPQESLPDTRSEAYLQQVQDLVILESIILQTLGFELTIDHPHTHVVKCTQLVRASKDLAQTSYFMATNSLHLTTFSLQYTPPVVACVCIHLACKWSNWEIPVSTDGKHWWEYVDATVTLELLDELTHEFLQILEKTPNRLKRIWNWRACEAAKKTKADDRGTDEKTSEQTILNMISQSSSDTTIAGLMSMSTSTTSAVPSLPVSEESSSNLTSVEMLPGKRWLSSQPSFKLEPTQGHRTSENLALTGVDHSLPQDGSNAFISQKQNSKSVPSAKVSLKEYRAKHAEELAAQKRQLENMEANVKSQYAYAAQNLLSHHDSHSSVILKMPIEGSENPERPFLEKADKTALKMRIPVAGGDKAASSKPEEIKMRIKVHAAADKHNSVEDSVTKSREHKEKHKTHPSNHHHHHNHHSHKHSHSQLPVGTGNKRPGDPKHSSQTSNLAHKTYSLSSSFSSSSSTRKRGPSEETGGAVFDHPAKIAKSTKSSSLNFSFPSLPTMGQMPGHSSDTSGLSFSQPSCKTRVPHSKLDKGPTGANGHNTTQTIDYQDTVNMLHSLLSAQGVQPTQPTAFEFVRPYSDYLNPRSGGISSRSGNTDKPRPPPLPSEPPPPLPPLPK
# Experimental: as §2
# [7] = test system: A1847 Parental or dBET6-R cells; assay: Western blot for cross-resistance to other PROTACs; format: cell-based; settings: A1847 dBET6-R vs parental; 1 μM, 24 hours
# [8] = test system: HCT-15, DLD-1 and CAKI-1 cells (MDR1 overexpressing); assay: CellTiter-Glo cell viability of MDR1 overexpressing vs low MDR1 cancer cell lines; settings: HCT-15, DLD-1, CAKI-1 vs A1847, SUM159, MOLT4; escalating doses, 5 days
# MDR1 (ABCB1) = assay: Single-run proteomics (LC-MS/MS, label-free quantitation) of degrader-resistant cells; format: cell-based, human; settings: A1847 cells chronically exposed to the degrader (degrader-R) vs parental
# Experimental: To determine changes in cells chronically exposed to BET or CDK9 PROTACs, we performed single-run proteome analysis as previously described (Lai et al., Front. Oncol., 2020, 10, 2336). Briefly, WT or PROTAC-R cells were lysed in 50 mM HEPES pH 8.0+4% SDS, and 100 μg of proteins were digested using LysC and trypsin. Digested peptides were isolated using C-18 and PGC columns, then dried and cleaned with ethyl acetate. Three […] peptides were analyzed using LC-MS/MS. MaxQuant normalized LFQ values were imported into Perseus software (1.6.2.3) and filtered in the following manner: kinases identified by site only were removed, reverse, or potential contaminant were removed then filtered for kinases identified by >1 unique peptide. Protein LFQ values were log 2 transformed, filtered for a minimum valid number of 3, normalized using Z-scores, annotated, and subjected to a Student's t-test with comparing […]. […]
# Proteolytic peptides were resuspended in 0.1% formic acid and separated with a Thermo Scientific RSLC nano Ultimate 3000 LC on a Thermo Scientific Easy-Spray C18 PepMap 75 μm×50 cm C-18 2 μm column. […] Eluted peptides were analyzed by Thermo Scientific Q Exactive or Q Exactive plus mass spectrometers utilizing a top 15 methodology in which the 15 most intense peptide precursor ions were subjected to fragmentation. […]
# Raw data analysis of LFQ experiments was performed using MaxQuant software 1.6.1.0 and searched using Andromeda 1.5.6.0 against the Swiss-Prot human protein database (downloaded on Apr. 24, 2019, 20402 entries). […] LFQ quantitation was performed using MaxQuant with the following parameters; LFQ minimum ratio count: Global parameters for protein quantitation were as follows: label minimum ratio count: 1, peptides used for quantitation: unique, only use modified proteins selected and with normalized average ratio estimation selected. Match between runs was employed for LFQ quantitation and the significance threshold of the ion score was calculated based on a false discovery rate of <1%.
# CDK9 [9] = molecular target: T2, CDK9; assay: Western blot of CDK9 degradation, A1847 parental vs Thal-R cells; format: cell-based
# Experimental: as §2
# LS513 xenografts = assay: Tumor xenograft experiment; format: in vivo, nude mice; settings: MS934 50 mg/kg intraperitoneal daily, lapatinib 100 mg/kg oral gavage daily, or the combination; two weeks
# Experimental: Animal studies were conducted in accordance with the guidelines set forth by the Institutional Animal Care and Use Committee. 1×10^6 LS513 cells were prepared in growth factor reduced Matrigel (Corning) 1:1 and injected into the right flank of 6- to 8-weeks old nude mice. […] For in vivo studies, MS934 was resuspended in 5% N-methyl-2-pyrrolidinone (NMP), 5% Kolliphor HS-15 (sigma) and 90% saline; and delivered by intraperitoneal injection (daily). […] Tumor volumes were evaluated every two days using a caliper and the volume was calculated applying the following formula: [(width)^2×(length)]/2.
# [10] = test system: BET proteins (BRD2, BRD3 or BRD4); assay: Western blot of BET protein degradation, parental vs degrader-resistant cells; format: cell-based; settings: A1847 dBET6-R or MZ1-R vs parental; 2 μM, 4 hours
# Experimental: as §2
# MDR1 [11] = molecular target: T3, MDR1 (Homo sapiens, UniProt P08183); assay: Rhodamine 123 efflux assay in LS513 cells; format: cell-based; parameters: endogenous in cells; settings: 2 μM
# T3 sequence (P08183 whole entry): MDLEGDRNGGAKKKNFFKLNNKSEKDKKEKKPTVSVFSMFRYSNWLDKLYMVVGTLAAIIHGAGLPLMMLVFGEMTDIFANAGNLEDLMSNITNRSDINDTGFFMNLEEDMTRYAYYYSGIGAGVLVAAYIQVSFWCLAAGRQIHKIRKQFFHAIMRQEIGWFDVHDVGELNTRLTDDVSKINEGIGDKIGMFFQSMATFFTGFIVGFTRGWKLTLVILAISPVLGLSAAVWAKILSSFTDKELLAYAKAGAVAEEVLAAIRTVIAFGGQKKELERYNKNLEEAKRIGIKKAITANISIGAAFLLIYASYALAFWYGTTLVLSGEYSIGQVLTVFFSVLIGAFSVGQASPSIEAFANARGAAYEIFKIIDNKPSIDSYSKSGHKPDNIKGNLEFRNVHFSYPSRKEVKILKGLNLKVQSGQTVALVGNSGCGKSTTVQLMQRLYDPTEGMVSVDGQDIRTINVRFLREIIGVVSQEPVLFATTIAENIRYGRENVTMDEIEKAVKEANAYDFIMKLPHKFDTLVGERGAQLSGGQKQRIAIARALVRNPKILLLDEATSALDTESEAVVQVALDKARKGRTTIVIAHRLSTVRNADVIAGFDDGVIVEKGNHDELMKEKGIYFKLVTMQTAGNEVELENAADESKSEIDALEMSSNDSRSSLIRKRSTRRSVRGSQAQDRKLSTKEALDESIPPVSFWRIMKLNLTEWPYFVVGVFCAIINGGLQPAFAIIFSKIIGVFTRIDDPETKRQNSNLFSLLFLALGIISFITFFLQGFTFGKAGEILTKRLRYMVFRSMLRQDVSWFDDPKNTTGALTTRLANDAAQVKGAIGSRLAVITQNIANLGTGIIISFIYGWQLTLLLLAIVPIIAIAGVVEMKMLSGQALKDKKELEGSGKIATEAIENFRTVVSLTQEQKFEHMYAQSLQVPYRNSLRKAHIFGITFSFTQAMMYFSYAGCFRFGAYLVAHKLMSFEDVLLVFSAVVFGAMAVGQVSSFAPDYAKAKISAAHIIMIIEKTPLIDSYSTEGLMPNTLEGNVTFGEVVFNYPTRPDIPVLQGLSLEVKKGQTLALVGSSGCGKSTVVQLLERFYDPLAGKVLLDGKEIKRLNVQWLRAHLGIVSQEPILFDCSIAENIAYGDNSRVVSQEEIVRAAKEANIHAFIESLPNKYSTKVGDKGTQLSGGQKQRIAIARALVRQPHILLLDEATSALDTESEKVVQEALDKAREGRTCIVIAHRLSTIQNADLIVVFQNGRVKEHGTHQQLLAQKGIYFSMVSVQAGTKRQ
# Experimental: Efflux assay was performed according to manufacturer's protocol (Millipore Sigma #ECM910). […] Cells were centrifuged and treated in warm efflux buffer with DMSO or drug for 30-60 minutes, washed with cold PBS, and effluxed dye was quantified with a plate reader at an excitation wavelength of 485 nm and an emission wavelength of 530 nm.
# [12] = test system: A1847 dBET6-R or Thal-R cells; assay: Apoptosis by western blot in degrader-resistant A1847 cells; format: cell-based; settings: 2 μM, 4 hours
# Experimental: as §2
# MDR1 [13] = molecular target: T3, MDR1; assay: Rhodamine 123 efflux assay in DLD-1 cells; format: cell-based; parameters: endogenous in cells; settings: 2 μM
# Experimental: (§1) Efflux assay was performed according to manufacturer's protocol (Millipore Sigma #ECM910). Cells were resuspended in cold efflux buffer and incubated with Rhodamine 123 for 1 hour on ice. Cells were centrifuged and treated in warm efflux buffer with DMSO or drug for 30-60 minutes, washed with cold PBS, and effluxed dye was quantified with a plate reader at an excitation wavelength of 485 nm and an emission wavelength of 530 nm.
# DLD-1 cells = assay: Colony formation assay (14 days) in DLD-1 cells
# MDR1 [14] = molecular target: T3, MDR1; assay: Rhodamine 123 efflux assay in degrader-resistant cells; format: cell-based; parameters: endogenous in cells; host or cells: A1847 parental, dBET6-R, Thal-R; SUM159 parental, MZ1-R; settings: A1847 dBET6-R or Thal-R cell lines; 2 μM
# Experimental: as §1
# BRD4 (BET proteins) = molecular target: T4, BRD4 (BET proteins) (Homo sapiens, UniProt O60885); assay: Western blot of BET protein/BRD4 degradation in DLD-1 cells; format: cell-based; settings: 4 hours
# T4 construct: endogenous in cells; host or cells: DLD-1
# Experimental: as §2
# [15] = test system: ERBB3 and downstream AKT signaling; assay: Western blot of MEKi-induced ERBB3/AKT signaling in LS513 cells; format: cell-based; parameters: dose or concentration left out as unconfirmed; settings: LS513, 48 hours
# Experimental: as §2
# [16] = SW1463, lapatinib 5 μM or tariquidar 0.01 μM, 48 hours
structure (smiles),measurement,setting,value
C=C(F)C(=O)N1CCN(c2nc(OC[C@@H]3CCCN3CCCOCCC(=O)N[C@H](C(=O)N3C[C@H](O)C[C@H]3C(=O)NCc3ccc(-c4scnc4C)cc3)C(C)(C)C)nc3c2CCN(c2cccc4cccc(Cl)c24)C3)C[C@@H]1CC#N [LC-2],sensitivity (colony formation),[1],intrinsic resistance
same,"KRASG12C protein levels, single agent","KRASG12C; SW1463 cells, 1 μM",had no impact on KRASG12C protein levels
Cc1ncsc1-c1ccc([C@H](C)NC(=O)[C@@H]2C[C@@H](O)CN2C(=O)[C@@H](NC(=O)CCCCCCCCCCNCCCONC(=O)c2ccc(F)c(F)c2Nc2ccc(I)cc2F)C(C)(C)C)cc1 [MS432],protein reduction on co-treatment with tariquidar,MEK1/2 [2],improved the protein reduction relative to single agent therapies
same,resistance of MDR1 overexpressing vs MDR1 low expressing CRC cell lines,[3],more resistant
same,"MEK1 or MEK2 protein levels, ERK1/2 phosphorylation, apoptosis",MEK1/2 [4],"did not reduce MEKI or MEK2 protein levels, inhibit ERK1/2 phosphorylation or induce apoptosis"
CC(C)(C)c1cnc(CSc2cnc(NC(=O)C3CCN(CC(=O)NCCOCCOCCOCCNc4cccc5c4C(=O)N(C4CCC(=O)NC4=O)C5=O)CC3)s2)o1 (centres unmarked) [Thal SNS 032],acquired resistance (cell viability dose-response),"[5]; A1847 parental vs chronically exposed cells, escalating doses, 5 days",acquire resistance
same,reduction of intended degrader target (CDK9),"CDK9 [6]; DLD-1, single agent, escalating doses, vs A1847 or MOLT4",did not reduce the intended degrader target to the extent observed with degrader-sensitive A1847 or MOLT4 cells
same,degradation efficiency of CDK9 on co-treatment with tariquidar,"CDK9 [6]; DLD-1, increasing doses plus tariquidar 0.1 μM",improved the degradation efficiency
same,cross-resistance to PROTACs targeting other proteins,[7],cross-resistant
same,cell viability of MDR1 overexpressing cells,[8],did not reduce cell viability to the extent of cancer cell lines expressing low or no detectable MDR1 protein
same,MDR1 protein levels upregulated relative to parental cell lines by LFQ analysis,MDR1 (ABCB1),~2.5 fold
same,CDK9 protein levels and phosphorylation of RNA polymerase (S2),"CDK9 [9]; chronically exposed A1847 cells vs parental, increasing doses, 24 hours",did not inhibit cell viability or reduce CDK9 protein levels
CS(=O)(=O)CCNCc1ccc(-c2ccc3ncnc(Nc4ccc(OCc5cccc(F)c5)c(Cl)c4)c3c2)o1 [lapatinib],tumor growth (tumor volume),LS513 xenografts,ineffective
same,sensitivity of degrader-resistant cells vs parental cells (cell viability),"[5]; increasing concentrations, A1847 dBET6-R, Thal-R, MZ1-R and SUM159 MZ1-R",more sensitive
same,degradation of BET proteins in degrader-resistant cell lines,[10],resulted in degradation of BET proteins
same,degradation of CDK9 by Thal SNS 032 on combined treatment,"CDK9 [6]; DLD-1, increasing doses of Thal SNS 032 plus the compound at 2 μM",improving degradation of CDK9
same,MDR1 drug efflux activity (Rhodamine 123 efflux),MDR1 [11],reduced MDR1 drug efflux activity similar to tariquidar
same,apoptosis in degrader-resistant cell lines,[12],resulted in apoptosis similar to tariquidar treatment
same,MDR1 drug efflux activity (Rhodamine 123 efflux),MDR1 [13],reduced MDR1 drug efflux activity similar to tariquidar-treatment
same,growth inhibition of colonies on combination with Thal SNS 032,"DLD-1 cells; compound at 2 μM, 14 days",enhancing growth inhibition of colonies
same,colony formation on co-treatment with dBET6,"DLD-1 cells; dBET6 0.1 μM plus the compound at 2 μM, 14-day period",sensitized DLD-1 cells to dBET6
same,MDR1 drug efflux activity (Rhodamine 123 efflux),MDR1 [14],reduced MDR1 drug efflux activity similar to that observed with tariquidar
same,reduction in concentrations of dBET6 required to degrade BRD4 when combined,BRD4 (BET proteins); combined with the compound at 2 μM,100 fold
same,dBET6-mediated degradation of BRD4 on combined treatment,BRD4 (BET proteins); increasing doses of dBET6 plus the compound at 2 μM,improved dBET6-mediated degradation of BRD4
same,degradation of CDK9 in degrader-resistant cell lines,"CDK9 [9]; A1847 Thal-R vs parental, 2 μM, 4 hours","resulted in degradation of BET proteins (FIG. 5, Panel G; FIG. 12, Panels E and F) or CDK9"
same,MEK inhibitor-induced ERBB3 and downstream AKT and RAF signaling,[15],could be blocked by lapatinib treatment
same,PROTAC-mediated degradation of KRASG12C on combining with LC-2,KRASG12C; [16],improved PROTAC-mediated degradation of KRASG12C reducing protein levels
same,phosphorylation of MEK and ERK on combining with LC-2,KRASG12C; [16],reduced phosphorylation of MEK and ERK
same,CRAF and AKT phosphorylation and apoptosis on combining with LC-2,"KRASG12C; SW1463, lapatinib 5 μM, 48 hours","uniquely reduced CRAF and AKT phosphorylation, as well as induced apoptosis"
